One experiment deals with human cyclin B-CDK1 (Homo sapiens, UniProt P06493). Nature of the experiment: FlashPlate kinase assay, cyclin B-CDK1, Rb substrate. Type of experiment: biochemical. The note with it: recombinant cyclin B-CDK1, Rb phosphorylation, 1 μM ATP. Here is the method:
(§1) To determine inhibition of Cdk4, Cdk2 and Cdk1 activity, kinase assays were conducted using FlashPlate™ assays (NEN™-Life Science Products). FlashPlate assays were performed using recombinant human cyclin B-CDK1, human cyclin E-CDK2 or human cyclin D1-CDK4 complexes. GST-cyclinE (GST-cycE), CDK2, GST-cyclinB (GST-cycB), CDK1, GST-CDK4 and cyclin D1 (cycD1) cDNA clones in baculovirus vectors were provided by Dr. W. Harper at the Baylor College of Medicine, Houston, Tex. Proteins were co-expressed in High Five™ insect cells and the complex was purified on glutathione Sepharose resin (Pharmacia, Piscataway, N.J.) as previously described (Harper, J. W. et al. Cell 1993, 75, 805-816). A 6×-Histidine tagged truncated form of retinoblastoma (Rb) protein (amino acid 386-928) was used as the substrate for the cycD1-CDK4, cycB-CDK1 and the cycE-CDK2 assays (the expression plasmid was provided by Dr. Veronica Sullivan, Department of Molecular Virology, Roche Research Centre, Welwyn Garden City, United Kingdom). The Rb protein is a natural substrate for phosphorylation by CDK4, CDK2 and CDK1 (see Herwig and Strauss Eur. J. Biochem. Vol. 246 (1997) pp. 581-601 and the references cited therein).
(§2) The expression of the 62 Kd protein was under the control of an IPTG inducible promoter in an M15 E. coli strain. Cells were lysed by sonication and purification was carried out by binding lysates at pH 8.0 to a Ni-chelated agarose column pretreated with 1 mM imidazole. The resin was then washed several times with incrementally decreasing pH buffers to pH 6.0, and eluted with 500 mM imidazole. Eluted protein was dialysed against 20 mM HEPES pH 7.5, 30% glycerol, 200 mM NaCl, and 1 mM DTT. Purified Rb fusion protein stocks were quantitated for protein concentration, aliquoted, and stored at −70° C.
(§3) For all three kinase assays reported herein, 96-well FlashPlates were coated with Rb protein at 10 μg/ml, using 100 μl per well. Plates were incubated at 4° C. overnight or at room temperature for 3 hours on a shaker. To control for nonspecific phosphorylation, one row of wells was coated with 100 μl/well coating buffer (20 mM HEPES, 0.2 M NaCl). Plates were then washed twice with wash buffer (0.01% Tween 20 in phosphate-buffered saline). Compounds to be tested (“test compounds”) were added to the wells at 5×final concentration. Reactions were initiated by immediate addition of 40 μl reaction mix (25 mM HEPES, 20 mM MgCl2, 0.002% Tween 20, 2 mM DTT, 1 μM ATP, 4 nM ^33P-ATP) and a sufficient amount of enzyme to give counts that were at least 10-fold above background. Plates were incubated at room temperature on a shaker for 30 minutes. Plates were washed four times with the wash buffer, sealed, and counted on the TopCount scintillation counter (Packard Instrument Co., Downers Grove, Ill.]. The percent inhibition of Rb phosphorylation, which is a measure of the inhibition of CDK activity, was determined according to the following formula: [formula]
(§4) where “test compound” refers to the average counts per minute of the test duplicates, “nonspecific” refers to the average counts per minute when no CyclinD/Cdk4, etc., was added, and “total” refers to the average counts per minute when no compound was added. The IC50 value is the concentration of test compound that reduces by 50% the protein-kinase induced incorporation of the radiolabel under the test conditions described.

The target in a further experiment is human cyclin E-CDK2 (Homo sapiens, UniProt P24941). The experiment in a line: FlashPlate kinase assay, cyclin E-CDK2, Rb substrate. In kind it is biochemical. The note with it: recombinant cyclin E-CDK2, Rb phosphorylation, 1 μM ATP. Here is the method: as §1, §2, §3, §4
For experiment [1], the system named is HCT116, a colorectal carcinoma cell line. Nature of the experiment: Tetrazolium dye proliferation assay (MTT assay). In kind it is cell-based. The note with it: inhibition of cell proliferation. How it is done:
Proliferation was evaluated by the tetrazolium dye assay according to the procedure of Denizot and Lang (Denizot, F. and Lang, R. J Immunol Methods 1986, 89, 271-277). The cell line used was HCT116, a colorectal carcinoma cell line obtained from the American Type Cell Culture Collection (ATCC; Rockville, Md.). The cells were grown in McCoy's 5A medium supplemented with 10% FCS and L-glutamine.
Cells were plated at the appropriate seeding density to give logarithmic growth over the course of the assay in a 96-well tissue culture plate. Plates were incubated overnight at 37° C. in a humidified incubator with 5% CO2. The next day, test compounds were serially diluted to four times the final concentration in the appropriate medium containing 1.2% DMSO. One-fourth final volume of each dilution was added in duplicate to the plates containing cells. The same volume of 1.2% DMSO in medium was added to a row of “control wells” such that the final concentration of DMSO in each well was 0.3%. Wells to which no cells were added served as the “blank.” Wells to which no inhibitor was added served as “no inhibitor control.” The plates were) returned to the incubator, and at set time points (determined by their growth curves) plates were analyzed as described below.
3-(4,5-dimethylthiazole-2-yl)-2,5-diphenyl-2H-tetrazolium bromide (thiazolyl blue; MTT; Sigma) was added to each well to yield a final concentration of 1 mg/ml. Plates were returned to the incubator for 2.5-3 hours at 37° C. The MTT-containing medium was removed and the resulting formazan metabolite was solubilized in 100% ethanol with shaking for 15 minutes at room temperature. Absorbance readings were taken in a microtiter plate reader (Dynatech and Molecular Devices plate readers were used interchangeably) at a wavelength of 570 nm with a 650 nm reference. Percent inhibition (% INH) is calculated by subtracting the absorbance of the blank well from all wells, then subtracting the ratio of the average absorbance of each test duplicate (SAVE) by the average of the controls (CAVE) from 1.00. The final number is then multiplied by 100 (% INH=(1.00−SAVE/CAVE)×100). The concentration at which 50% inhibition of cell proliferation is obtained (the IC50) is determined from the linear regression of a plot of the logarithm of the concentration versus percent inhibition.
For orientation: Tetrazolium assays rely on reduction of a dye to a coloured formazan, in cell work by metabolically active cells.

Another experiment has as its target human cyclin D1-CDK4 (Homo sapiens, UniProt P11802). Nature of the experiment: FlashPlate kinase assay, cyclin D1-CDK4, Rb substrate. In kind it is biochemical. The settings on record: recombinant cyclin D1-CDK4, Rb phosphorylation, 1 μM ATP. Here is the method:
as §1, §2, §3, §4

Where [2] appears, read: Homo sapiens, HCT-116, HCT116 cells.

15 compounds from patent US6818663B2, “Diaminothiazoles” (Hoffmann-La Roches, priority 2002, dated 2004) can be followed below.

human cyclin B-CDK1, sequence (P06493 whole entry): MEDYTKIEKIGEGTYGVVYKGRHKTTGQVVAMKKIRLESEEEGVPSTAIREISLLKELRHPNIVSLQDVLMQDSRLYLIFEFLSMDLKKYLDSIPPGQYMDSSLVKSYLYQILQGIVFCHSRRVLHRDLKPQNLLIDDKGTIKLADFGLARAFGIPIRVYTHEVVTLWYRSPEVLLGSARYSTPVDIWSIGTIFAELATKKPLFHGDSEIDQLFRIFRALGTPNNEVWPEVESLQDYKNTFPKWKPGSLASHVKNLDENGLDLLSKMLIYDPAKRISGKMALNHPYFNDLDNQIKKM
human cyclin B-CDK1, sequence (P14635 whole entry partner): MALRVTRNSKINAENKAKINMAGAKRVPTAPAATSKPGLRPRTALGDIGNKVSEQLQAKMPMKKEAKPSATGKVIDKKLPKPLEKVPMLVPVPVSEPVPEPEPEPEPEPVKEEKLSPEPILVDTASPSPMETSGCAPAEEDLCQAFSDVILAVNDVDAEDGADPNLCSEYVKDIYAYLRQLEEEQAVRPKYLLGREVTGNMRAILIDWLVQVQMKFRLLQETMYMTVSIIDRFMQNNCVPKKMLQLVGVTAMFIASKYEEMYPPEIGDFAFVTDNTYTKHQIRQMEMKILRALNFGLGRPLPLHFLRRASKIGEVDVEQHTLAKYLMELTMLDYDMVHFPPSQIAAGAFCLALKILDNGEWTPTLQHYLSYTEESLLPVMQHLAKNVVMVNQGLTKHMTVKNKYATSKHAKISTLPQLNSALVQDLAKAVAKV
human cyclin D1-CDK4, sequence (P11802 whole entry): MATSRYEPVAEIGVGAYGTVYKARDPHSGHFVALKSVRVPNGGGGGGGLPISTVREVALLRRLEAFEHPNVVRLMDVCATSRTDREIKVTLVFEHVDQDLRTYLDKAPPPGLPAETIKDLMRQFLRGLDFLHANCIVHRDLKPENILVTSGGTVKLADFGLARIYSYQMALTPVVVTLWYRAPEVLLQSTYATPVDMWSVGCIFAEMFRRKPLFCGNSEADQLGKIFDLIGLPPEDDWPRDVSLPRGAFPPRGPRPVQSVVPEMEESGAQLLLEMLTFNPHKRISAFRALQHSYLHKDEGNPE
human cyclin D1-CDK4, sequence (P24385 whole entry partner): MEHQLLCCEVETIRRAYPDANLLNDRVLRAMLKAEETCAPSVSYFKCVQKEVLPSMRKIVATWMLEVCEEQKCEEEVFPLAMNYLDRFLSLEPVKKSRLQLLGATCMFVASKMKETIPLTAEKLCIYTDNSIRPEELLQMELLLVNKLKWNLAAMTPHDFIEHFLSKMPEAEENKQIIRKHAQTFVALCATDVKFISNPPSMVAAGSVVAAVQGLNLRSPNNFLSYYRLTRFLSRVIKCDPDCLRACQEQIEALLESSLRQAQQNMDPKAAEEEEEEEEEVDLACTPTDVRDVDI

Regarding `Nc1nc(Nc2ccc(OCCN3CCCC3)cc2)sc1C(=O)c1cccc(F)c1` [Example 36, [4-Amino-2-[4-(2-pyrrolidin-1-yl-ethoxy)-phenylamino]-thiazol-5-yl]-(3-fluoro-phenyl)-methanone], the IC50 stood at 338 nM on human cyclin B-CDK1, 800 nM at human cyclin E-CDK2, 477 nM in experiment [1] (HCT116 cells) and 27 nM on human cyclin D1-CDK4.
Regarding `CN(C)CCOc1ccc(Nc2nc(N)c(C(=O)c3cccc(F)c3)s2)cc1` [Example 37, [4-Amino-2-[4-(2-dimethylamino-ethoxy)-phenylamino]-thiazol-5-yl]-(3-fluoro-phenyl)-methanone], the IC50 was found to be 126 nM on human cyclin B-CDK1, 892 nM on human cyclin E-CDK2, 520 nM in experiment [1] (setting [2]) and 32 nM on human cyclin D1-CDK4.
On to `CC(COc1ccc(Nc2nc(N)c(C(=O)c3cccc(F)c3)s2)cc1)N(C)C` (stereo not drawn) [Example 38, [4-Amino-2-[4-(2-dimethylamino-propoxy)-phenylamino]-thiazol-5-yl]-(3-fluoro-phenyl)-methanone], for which the IC50 on human cyclin B-CDK1 was determined as 576 nM; on human cyclin E-CDK2 it was 1380 nM; in experiment [1] (setting [2]), 436 nM; on human cyclin D1-CDK4, 97 nM.
For the compound `C[C@H](COc1ccc(Nc2nc(N)c(C(=O)c3cccc(F)c3)s2)cc1)N(C)C` [Example 40, (R)-[4-Amino-2-[4-(2-dimethylamino-propoxy)-phenylamino]-thiazol-5-yl]-(3-fluoro-phenyl)-methanone], the IC50 at human cyclin B-CDK1 was found to be 581 nM; on human cyclin E-CDK2 it was 1010 nM; in experiment [1] (setting [2]), 346 nM; on human cyclin D1-CDK4 it was 87 nM.
In the same order, the values of `C[C@H](COc1ccc(Nc2nc(N)c(C(=O)c3cccc(F)c3)s2)cc1)N1CCCC1` [Example 41, (R)-[4-Amino-2-[4-(2-pyrrolidin-1-yl-propoxy)-phenylamino]-thiazol-5-yl]-(3-fluoro-phenyl)-methanone] are 435 nM, 1040 nM, 669 nM and 63 nM.
On to `CCN1CCC(Oc2ccc(Nc3nc(N)c(C(=O)c4cccc(F)c4)s3)cc2)C1` (stereo not drawn) [Example 42, [4-Amino-2-[4-(1-ethyl-pyrrolidin-3-yloxy)-phenylamino]-thiazol-5-yl]-(3-fluoro-phenyl)-methanone], for which the IC50 was 298 nM on human cyclin B-CDK1, 496 nM at human cyclin E-CDK2, 859 nM in experiment [1] (setting [2]) and 57 nM at human cyclin D1-CDK4.
As to `CCN1CCCC(Oc2ccc(Nc3nc(N)c(C(=O)c4cccc(F)c4)s3)cc2)C1` (stereo not drawn) [Example 43, [4-Amino-2-[4-(1-ethyl-piperidin-3-yloxy)-phenylamino]-thiazol-5-yl]-(3-fluoro-phenyl)-methanone], the IC50 at human cyclin B-CDK1 was 700 nM; on human cyclin E-CDK2, 1150 nM; in experiment [1] (setting [2]), 760 nM; at human cyclin D1-CDK4, 59 nM.
The matching figures for `CN1CCC[C@H]1COc1ccc(Nc2nc(N)c(C(=O)c3cccc(F)c3)s2)cc1` [Example 44, (S)-[4-Amino-2-[4-(1-methyl-pyrrolidin-2-ylmethoxy)-phenylamino]-thiazol-5-yl]-(3-fluoro-phenyl)-methanone]: 594 nM, 1270 nM, 390 nM and 65 nM.
In the same order, the values of `Nc1nc(Nc2ccc(OC3CCNC3)cc2)sc1C(=O)c1cccc(F)c1` (stereo not drawn) [Example 45, [4-Amino-2-[4-(pyrrolidin-3-yloxy)-phenylamino]-thiazol-5-yl]-(3-fluoro-phenyl)-methanone] are 158 nM, 589 nM, 1240 nM and 39 nM.
With `Cc1cccc(C(=O)c2sc(Nc3ccc(OCCN(C)C)cc3)nc2N)c1` [Example 50, [4-Amino-2-[4-(2-dimethylamino-ethoxy)-phenylamino]-thiazol-5-yl]-m-tolyl-methanone], the IC50 on human cyclin B-CDK1 worked out at 1700 nM; on human cyclin E-CDK2, 3360 nM; in experiment [1] (setting [2]) it was 1040 nM; at human cyclin D1-CDK4 it was 60 nM.
Regarding `Cc1cccc(C(=O)c2sc(Nc3ccc(OCCN4CCCC4)cc3)nc2N)c1` [Example 51, [4-Amino-2-[4-(2-pyrrolidin-1-yl-ethoxy)-phenylamino]-thiazol-5-yl]-m-tolyl-methanone], the IC50 on human cyclin B-CDK1 was found to be 1060 nM; at human cyclin E-CDK2, 2930 nM; in experiment [1] (setting [2]) it was 614 nM; at human cyclin D1-CDK4, 53 nM.
In the case of `CCc1cccc(C(=O)c2sc(Nc3ccc(OCCN(C)C)cc3)nc2N)c1` [Example 52, [4-Amino-2-[4-(2-dimethylamino-ethoxy)-phenylamino]-thiazol-5-yl]-(3-ethyl-phenyl)-methanone], the IC50 on human cyclin B-CDK1 came out at 3230 nM; at human cyclin E-CDK2 it was 1210 nM; in experiment [1] (setting [2]), 526 nM; on human cyclin D1-CDK4, 27 nM.
`CCc1cccc(C(=O)c2sc(Nc3ccc(OCCN4CCCC4)cc3)nc2N)c1` [Example 53, [4-Amino-2-[4-(2-pyrrolidin-1-yl-ethoxy)-phenylamino]-thiazol-5-yl]-(3-ethyl-phenyl)-methanone]: the IC50 on human cyclin B-CDK1 came to 2990 nM; on human cyclin E-CDK2, 930 nM; in experiment [1] (setting [2]), 402 nM; on human cyclin D1-CDK4, 22 nM.
The matching figures for `CN(C)CCOc1ccc(Nc2nc(N)c(C(=O)c3cccc([N+](=O)[O-])c3)s2)cc1` [Example 54, [4-Amino-2-[4-(2-dimethylamino-ethoxy)-phenylamino]-thiazol-5-yl]-(3-nitro-phenyl)-methanone]: 381 nM, 1240 nM, 1640 nM and 36 nM.
As to `Nc1nc(Nc2ccc(OCCN3CCCC3)cc2)sc1C(=O)c1ccc2c(c1)OCO2` [Example 57, [4-Amino-2-[4-(2-pyrrolidin-1-yl-ethoxy)-phenylamino]-thiazol-5-yl]-benzo[1,3]dioxol-5-yl-methanone], the IC50 worked out at 376 nM on human cyclin B-CDK1, 4890 nM at human cyclin E-CDK2, 2920 nM in experiment [1] (setting [2]) and 66 nM at human cyclin D1-CDK4.

One may read the IC50 as the concentration that gives 50% inhibition.
